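Dose response: 5 concentrations. Exposure: 48 h. Format: 96-well plates. Endpoint: linear interpolation; highest concentration if not reached. At the GI50, growth is halved.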 Active and inactive are the calls of the source. No stated cut-off is given here; in the data, active = GI50 up to about 1.1 µM and inactive = higher.
Columns and labels:
Assay in all cases: growth of human tumour cells (NCI), 48 h
SK-MEL-28 = test system: SK-MEL-28
IGROV-1 = test system: IGROV-1
MOLT-4 = test system: MOLT-4
UO-31 = test system: UO-31
U-251 = test system: U-251
SW-620 = test system: SW-620
COLO 205 = test system: COLO 205
M14 = test system: M14
NCI-H522 = test system: NCI-H522
NCI/ADR-RES = test system: NCI/ADR-RES
T47D = test system: T47D
HT-29 = test system: HT-29
UACC-257 = test system: UACC-257
RXF 393 = test system: RXF 393
DU-145 = test system: DU-145
Malme-3M = test system: Malme-3M
786-0 = test system: 786-0
SK-MEL-5 = test system: SK-MEL-5
CAKI-1 = test system: CAKI-1
SF-539 = test system: SF-539

Measured: GI50

COc1cccc2c3ccccc3c3nc[nH]c3c12
inactive: SK-MEL-28 19.7 µM | IGROV-1 41.4 µM | MOLT-4 9.08 µM | UO-31 41.7 µM | U-251 14.7 µM | SW-620 22.5 µM | COLO 205 17.9 µM | M14 28.6 µM | NCI-H522 24.5 µM | NCI/ADR-RES 46.3 µM | T47D > 50.4 µM | HT-29 31.6 µM | UACC-257 23.6 µM | RXF 393 17.5 µM | DU-145 46.9 µM | Malme-3M 36.1 µM | 786-0 18.1 µM | SK-MEL-5 16.7 µM | CAKI-1 48.4 µM | SF-539 18.2 µM

CC(C)[Si](OC1=C(C(=O)N(C)c2ccccc2Cl)CCC1)(C(C)C)C(C)C
inactive: SK-MEL-28 21.5 µM | IGROV-1 18.3 µM | MOLT-4 30.3 µM | UO-31 15.8 µM | U-251 16 µM | SW-620 24 µM | COLO 205 17.8 µM | M14 19 µM | NCI-H522 14.1 µM | NCI/ADR-RES 16.2 µM | T47D 19.7 µM | HT-29 15.3 µM | UACC-257 19 µM | RXF 393 18.3 µM | DU-145 22 µM | Malme-3M 19.1 µM | 786-0 21.7 µM | SK-MEL-5 24.8 µM | CAKI-1 18.7 µM | SF-539 22.9 µM

C1CNCCN2CCCNCCN(C1)CC2
inactive: SK-MEL-28 > 100 µM | IGROV-1 > 100 µM | MOLT-4 > 100 µM | UO-31 > 100 µM | U-251 > 100 µM | SW-620 > 100 µM | COLO 205 > 100 µM | M14 > 100 µM | NCI-H522 > 100 µM | NCI/ADR-RES > 100 µM | T47D > 100 µM | HT-29 > 100 µM | UACC-257 > 100 µM | RXF 393 > 100 µM | DU-145 > 100 µM | Malme-3M > 100 µM | 786-0 > 100 µM | SK-MEL-5 > 100 µM | CAKI-1 > 100 µM | SF-539 > 100 µM

O=C(Cc1nc2ncccc2[nH]c1=O)c1c[nH]c2ccccc12
inactive: SK-MEL-28 15.1 µM | IGROV-1 17.3 µM | MOLT-4 26.4 µM | UO-31 17.7 µM | U-251 17.7 µM | SW-620 17.1 µM | COLO 205 16.3 µM | M14 21 µM | NCI-H522 16.6 µM | NCI/ADR-RES 29.4 µM | T47D 17.6 µM | HT-29 23 µM | UACC-257 19.5 µM | RXF 393 22 µM | DU-145 17.5 µM | Malme-3M 17.6 µM | 786-0 18.2 µM | SK-MEL-5 23.1 µM | CAKI-1 17.4 µM | SF-539 16.6 µM

OCC1CCCCN1Cc1nc2cc(Cl)ccc2[nH]1 (stereo not given)
inactive: SK-MEL-28 > 100 µM | IGROV-1 > 100 µM | MOLT-4 > 100 µM | UO-31 > 100 µM | U-251 > 100 µM | SW-620 > 100 µM | COLO 205 > 100 µM | M14 > 100 µM | NCI-H522 > 100 µM | NCI/ADR-RES > 100 µM | T47D > 100 µM | HT-29 56.1 µM | UACC-257 > 100 µM | RXF 393 65 µM | DU-145 > 100 µM | Malme-3M > 100 µM | 786-0 > 100 µM | SK-MEL-5 > 100 µM | CAKI-1 > 100 µM | SF-539 > 100 µM

C[n+]1[n-]o/c(=N\N=O)c1-c1cc(-c2/c(=N/N=O)o[n-][n+]2C)cc(-c2/c(=N\N=O)o[n-][n+]2C)c1
inactive: SK-MEL-28 > 100 µM | IGROV-1 > 100 µM | MOLT-4 > 100 µM | UO-31 > 100 µM | U-251 > 100 µM | SW-620 > 100 µM | COLO 205 > 100 µM | M14 > 100 µM | NCI-H522 > 100 µM | NCI/ADR-RES > 100 µM | T47D > 100 µM | HT-29 > 100 µM | UACC-257 > 100 µM | RXF 393 > 100 µM | DU-145 > 100 µM | Malme-3M > 100 µM | 786-0 > 100 µM | SK-MEL-5 > 100 µM | CAKI-1 > 100 µM | SF-539 > 100 µM
